Measurements from patent US12336981B2, “Compounds and compositions for the inhibition of NAMPT” (Valo Health, Inc., priority 2010, dated 2025).
pIC50: −log10 of the molar value. Like-named read-outs stand apart in the source and are kept apart here.

Experiments:
NAMPT = target: T1, NAMPT (Homo sapiens, UniProt P43490); test: Biochemical inhibition assay: NAMPT enzymatic reaction, NMN quantified by mass spectrometry; conditions: read-out: Biochem IC50
T1 construct: His tag; host or cells: E. coli
T1 sequence (P43490 whole entry): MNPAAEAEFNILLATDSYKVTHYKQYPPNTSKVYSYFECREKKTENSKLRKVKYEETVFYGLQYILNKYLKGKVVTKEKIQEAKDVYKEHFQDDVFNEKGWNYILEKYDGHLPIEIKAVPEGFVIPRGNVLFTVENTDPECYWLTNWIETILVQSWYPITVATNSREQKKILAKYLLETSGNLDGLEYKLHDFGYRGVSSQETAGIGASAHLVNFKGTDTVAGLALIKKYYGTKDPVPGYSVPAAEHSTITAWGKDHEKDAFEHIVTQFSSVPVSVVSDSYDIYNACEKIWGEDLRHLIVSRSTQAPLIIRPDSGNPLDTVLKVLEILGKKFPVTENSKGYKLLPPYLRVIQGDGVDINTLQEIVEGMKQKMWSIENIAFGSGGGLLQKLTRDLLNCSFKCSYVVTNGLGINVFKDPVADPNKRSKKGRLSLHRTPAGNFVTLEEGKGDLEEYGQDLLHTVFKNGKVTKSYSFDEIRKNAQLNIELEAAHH
Summary of the method: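 Inhibition of E. coli-expressed His-tagged human NAMPT, measured as NMN formation by mass spectrometry after a 30 min room-temperature reaction containing 1 μM NAM, 100 μM PRPP and 2.5 mM ATP.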

A2780 cells = test: In-vitro cell proliferation assay (SRB), A2780 cells; assay type: cell-based; conditions: Homo sapiens, A2780, 72 h, A2780 cells, 72 hours, read-out: A2780 IC50
Summary of the method: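 Viable cells measured by SRB staining after 6% TCA fixation, absorbance 570 nm. Media-only background subtracted; % inhibition derived at two compound concentrations.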

## O=C(NCc1ccc(S(=O)(=O)c2cccc(C(F)(F)F)c2Cl)cc1)c1cnc2[nH]ncc2c1 [N-[(4-{[2-chloro-3-(trifluoromethyl)benzene]sulfonyl}phenyl)methyl]-1H-pyrazolo[3,4-b]pyridine-5-carboxamide]
NAMPT; NAMPT enzymatic assay
  pIC50: 7.44
A2780 cells; SRB
  pIC50: 7.42

## CCCOc1ccc(S(=O)(=O)c2ccc(CNC(=O)c3cc4ccncc4s3)cc2)c(C)c1 [N-({4-[(2-methyl-4-propoxybenzene)sulfonyl]phenyl}methyl)thieno[2,3-c]pyridine-2-carboxamide]
NAMPT; NAMPT enzymatic reaction
  pIC50: 7.89
A2780 cells; SRB
  pIC50: 8.77

## COc1cc(C)cc(S(=O)(=O)c2ccc(CNC(=O)c3cc4ccncc4s3)cc2)c1
NAMPT; NAMPT enzymatic reaction
  pIC50: 8.62
A2780 cells; SRB
  pIC50: 9.10

## O=C(NCc1ccc(S(=O)(=O)c2cnn(-c3cccc(Cl)c3)c2)cc1)c1cc2ccncc2s1 [N-({4-[1-(3-chlorophenyl)-1H-pyrazole-4-sulfonyl]phenyl}methyl)thieno[2,3-c]pyridine-2-carboxamide]
NAMPT; NAMPT enzymatic assay
  pIC50: 8.39
A2780 cells; SRB
  pIC50: 7.86

## Cc1cc(C(F)(F)F)ccc1S(=O)(=O)c1ccc(CNC(=O)c2cc3ccncc3o2)cc1
NAMPT; NAMPT enzymatic assay
  pIC50: 7.46
A2780 cells; SRB
  pIC50: 7.20

## CCCCOc1cccc(F)c1S(=O)(=O)c1ccc(CNC(=O)c2cc3ccncc3o2)cc1
NAMPT; NAMPT enzymatic reaction
  pIC50: 7.59
A2780 cells; SRB
  pIC50: 7.16

## CC(C)c1ccc(S(=O)(=O)c2ccc(CNC(=O)c3cc4ccncc4s3)cc2)cc1 [N-[(4-{[4-(propan-2-yl)benzene]sulfonyl}phenyl)methyl]thieno[2,3-c]pyridine-2-carboxamide]
NAMPT; NAMPT enzymatic reaction
  pIC50: 8.22
A2780 cells; SRB assay
  pIC50: 8.15

## Cn1ncc2cc(S(=O)(=O)c3ccc(CNC(=O)c4cc5ccncc5o4)cc3)ccc21 [N-{[4-(1-methyl-1H-indazole-5-sulfonyl)phenyl]methyl}furo[2,3-c]pyridine-2-carboxamide]
NAMPT; NAMPT enzymatic assay
  pIC50: 8.48
A2780 cells; SRB
  pIC50: 8.46

## O=C(NCc1ccc(S(=O)(=O)c2ccccc2CN2CCOCC2)cc1)c1cc2cnccc2[nH]1 [N-[(4-{[2-(morpholin-4-ylmethyl)benzene]sulfonyl}phenyl)methyl]-1H-pyrrolo[3,2-c]pyridine-2-carboxamide]
NAMPT; NAMPT enzymatic reaction
  pIC50: 7.47
A2780 cells; SRB assay
  pIC50: 8.22

## Cc1ccc(S(=O)(=O)c2ccc(CNC(=O)c3cnc4nccn4c3)cc2)c(C)c1
NAMPT; NAMPT enzymatic reaction
  pIC50: 8.68
A2780 cells; SRB
  pIC50: 7.31

## COc1cc(Cl)cc(S(=O)(=O)c2ccc(CNC(=O)c3ccc4nccn4c3)cc2)c1
NAMPT; NAMPT enzymatic reaction
  pIC50: 8.04
A2780 cells; SRB
  pIC50: 8.82

## O=C(NCc1ccc(S(=O)(=O)c2ccc(Cl)c(C(F)(F)F)c2)cc1)c1cc2ccncc2s1 [N-[(4-{[4-chloro-3-(trifluoromethyl)benzene]sulfonyl}phenyl)methyl]thieno[2,3-c]pyridine-2-carboxamide]
NAMPT; NAMPT enzymatic reaction
  pIC50: 8.00
A2780 cells; SRB assay
  pIC50: 8.47

## O=C(NCc1ccc(S(=O)(=O)c2cccc(OCCN3CCOCC3)c2)cc1)c1cc2ccncc2s1
NAMPT; NAMPT enzymatic assay
  pIC50: 8.52
A2780 cells; SRB
  pIC50: 8.82

## CCCCOc1ccc(S(=O)(=O)c2ccc(CNC(=O)c3cc4cnccc4[nH]3)cc2)cc1Cl
NAMPT; NAMPT enzymatic reaction
  pIC50: 7.75
A2780 cells; SRB
  pIC50: 7.91

## CCN(C)c1ncc(S(=O)(=O)c2ccc(CNC(=O)c3cnc4nccn4c3)cc2)s1 [N-[(4-{2-[ethyl(methyl)amino]-1,3-thiazole-5-sulfonyl}phenyl)methyl]imidazo[1,2-a]pyrimidine-6-carboxamide]
NAMPT; NAMPT enzymatic assay
  pIC50: 8.74
A2780 cells; SRB
  pIC50: 9.05

## O=C(NCc1ccc(S(=O)(=O)c2cccc(C(F)(F)F)n2)cc1)c1cc2ccncc2s1 [N-({4-[6-(trifluoromethyl)pyridine-2-sulfonyl]phenyl}methyl)thieno[2,3-c]pyridine-2-carboxamide]
NAMPT; NAMPT enzymatic assay
  pIC50: 8.68
A2780 cells; SRB
  pIC50: 8.66

## CCNC(=O)c1cccc(S(=O)(=O)c2ccc(CNC(=O)c3cnc4nccn4c3)cc2)c1
NAMPT; NAMPT enzymatic assay
  pIC50: 8.51
A2780 cells; SRB
  pIC50: 7.18

## CCCn1cc(S(=O)(=O)c2ccc(CNC(=O)c3cc4ccncc4s3)cc2)cn1 [N-{[4-(1-propyl-1H-pyrazole-4-sulfonyl)phenyl]methyl}thieno[2,3-c]pyridine-2-carboxamide]
NAMPT; NAMPT enzymatic assay
  pIC50: 8.72
A2780 cells; SRB
  pIC50: 8.80

## O=C(NCc1ccc(S(=O)(=O)c2cccnc2C(F)(F)F)cc1)c1cc2ccncc2o1 [N-({4-[2-(trifluoromethyl)pyridine-3-sulfonyl]phenyl}methyl)furo[2,3-c]pyridine-2-carboxamide]
NAMPT; NAMPT enzymatic assay
  pIC50: 7.52
A2780 cells; SRB
  pIC50: 7.55

## Cc1cc(S(=O)(=O)c2ccc(CNC(=O)c3cnc4nccn4c3)cc2)c(C)cc1F
NAMPT; NAMPT enzymatic reaction
  pIC50: 8.24
A2780 cells; SRB
  pIC50: 7.53

## O=C(NCc1ccc(S(=O)(=O)c2ccccc2Oc2ccccc2)cc1)c1cnc2nccn2c1
NAMPT; NAMPT enzymatic reaction
  pIC50: 8.07
A2780 cells; SRB
  pIC50: 6.00 to 7.00

## O=C(NCc1ccc(S(=O)(=O)c2cc(F)cc(C(F)(F)F)c2)cc1)c1cc2ccncc2o1
NAMPT; NAMPT enzymatic assay
  pIC50: 8.13
A2780 cells; SRB
  pIC50: 8.30

## CC(C)Oc1ccccc1NS(=O)(=O)c1ccc(CNC(=O)c2cc3cnccc3[nH]2)cc1 [N-[(4-{[2-(propan-2-yloxy)phenyl]sulfamoyl}phenyl)methyl]-1H-pyrrolo[3,2-c]pyridine-2-carboxamide]
NAMPT; NAMPT enzymatic reaction
  pIC50: 8.52
A2780 cells; SRB assay
  pIC50: 9.00

## CCOCc1ccc(S(=O)(=O)c2ccc(CNC(=O)c3cnc4nccn4c3)cc2)cc1
NAMPT; NAMPT enzymatic assay
  pIC50: 8.57
A2780 cells; SRB
  pIC50: 8.28

## CN(C)CCOc1cccc(S(=O)(=O)c2ccc(CNC(=O)c3cc4ccncc4o3)cc2)c1
NAMPT; NAMPT enzymatic assay
  pIC50: 7.93
A2780 cells; SRB
  pIC50: 8.24

## O=C(NCc1ccc(S(=O)(=O)c2cccc3c2OCC3)cc1)c1cc2cnccc2[nH]1 [N-{[4-(2,3-dihydro-1-benzofuran-7-sulfonyl)phenyl]methyl}-1H-pyrrolo[3,2-c]pyridine-2-carboxamide]
NAMPT; NAMPT enzymatic assay
  pIC50: 7.85
A2780 cells; SRB
  pIC50: 8.42

## Cc1cc(C)c(S(=O)(=O)c2ccc(CNC(=O)c3cnc4[nH]ncc4c3)cc2)c(C)c1 [N-({4-[(2,4,6-trimethylbenzene)sulfonyl]phenyl}methyl)-1H-pyrazolo[3,4-b]pyridine-5-carboxamide]
NAMPT; NAMPT enzymatic reaction
  pIC50: 6.87
A2780 cells; SRB
  pIC50: 6.00 to 7.00

## O=C(NCc1ccc(S(=O)(=O)c2ccc(-c3ccccc3)cc2)cc1)c1cnc2[nH]ncc2c1
NAMPT; NAMPT enzymatic reaction
  pIC50: 7.49
A2780 cells; SRB
  pIC50: 7.93

## Cc1cn(C)c(S(=O)(=O)c2ccc(CNC(=O)c3ccc4nccn4c3)cc2)n1 [N-{[4-(1,4-dimethyl-1H-imidazole-2-sulfonyl)phenyl]methyl}imidazo[1,2-a]pyridine-6-carboxamide]
NAMPT; NAMPT enzymatic assay
  pIC50: 6.00 to 7.00
A2780 cells; SRB
  pIC50: 7.02

## CC(NC(=O)c1cc2cnccc2[nH]1)c1ccc(S(=O)(=O)N2CCCCC2)cc1 (centres unmarked) [N-{1-[4-(piperidine-1-sulfonyl)phenyl]ethyl}-1H-pyrrolo[3,2-c]pyridine-2-carboxamide]
NAMPT; NAMPT enzymatic reaction
  pIC50: 7.70
A2780 cells; SRB assay
  pIC50: 8.15

## O=C(NCc1ccc(S(=O)(=O)c2ccc(C(F)(F)F)c(F)c2)cc1)c1cc2ccncc2o1
NAMPT; NAMPT enzymatic assay
  pIC50: 8.04
A2780 cells; SRB
  pIC50: 7.86

## CCOc1ccc(Cl)cc1S(=O)(=O)c1ccc(CNC(=O)c2cc3ccncc3s2)cc1
NAMPT; NAMPT enzymatic reaction
  pIC50: 8.57
A2780 cells; SRB
  pIC50: 9.30

## O=C(NCc1ccc(S(=O)(=O)c2ccc(F)c(C(F)(F)F)c2)cc1)c1cc2cnccc2[nH]1
NAMPT; NAMPT enzymatic assay
  pIC50: 7.79
A2780 cells; SRB
  pIC50: 8.37

## Cc1ccccc1S(=O)(=O)c1ccc(CNC(=O)c2cnc3[nH]ncc3c2)cc1 [N-({4-[(2-methylbenzene)sulfonyl]phenyl}methyl)-1H-pyrazolo[3,4-b]pyridine-5-carboxamide]
NAMPT; NAMPT enzymatic reaction
  pIC50: 7.03
A2780 cells; SRB
  pIC50: 6.00 to 7.00

## O=C(NCc1ccc(S(=O)(=O)c2cccc(-c3ccccc3)c2)cc1)c1ccc2ncsc2c1 [N-({4-[(3-phenylbenzene)sulfonyl]phenyl}methyl)-1,3-benzothiazole-6-carboxamide]
NAMPT; NAMPT enzymatic reaction
  pIC50: 7.73
A2780 cells; SRB
  pIC50: 5.00 to 6.00

## COc1cc(C)cc(S(=O)(=O)c2ccc(CNC(=O)c3cnc4[nH]ncc4c3)cc2)c1OC
NAMPT; NAMPT enzymatic reaction
  pIC50: 6.84
A2780 cells; SRB
  pIC50: 7.23

## CC(C)NC(=O)c1cccc(S(=O)(=O)c2ccc(CNC(=O)c3cc4ccncc4o3)cc2)c1
NAMPT; NAMPT enzymatic assay
  pIC50: 7.82
A2780 cells; SRB
  pIC50: 7.80

## CS(=O)(=O)Nc1ccccc1S(=O)(=O)c1ccc(CNC(=O)c2cc3cnccc3[nH]2)cc1 [N-({4-[(2-methanesulfonamidobenzene)sulfonyl]phenyl}methyl)-1H-pyrrolo[3,2-c]pyridine-2-carboxamide]
NAMPT; NAMPT enzymatic reaction
  pIC50: 6.55
A2780 cells; SRB assay
  pIC50: < 6.00

## O=C(NCc1ccc(S(=O)(=O)c2cnc3ccc(Cl)cn23)cc1)c1cnc2nccn2c1 [N-[(4-{6-chloroimidazo[1,2-a]pyridine-3-sulfonyl}phenyl)methyl]imidazo[1,2-a]pyrimidine-6-carboxamide]
NAMPT; NAMPT enzymatic assay
  pIC50: 8.80
A2780 cells; SRB
  pIC50: 9.40

## Cn1ncc2cc(C(=O)NCc3ccc(S(=O)(=O)c4ccccc4)cc3)cnc21 [N-{[4-(benzenesulfonyl)phenyl]methyl}-1-methyl-1H-pyrazolo[3,4-b]pyridine-5-carboxamide]
NAMPT; NAMPT enzymatic reaction
  pIC50: 5.76
A2780 cells; SRB assay
  pIC50: < 4.52

## O=C(NCc1ccc(S(=O)(=O)c2ccc3ncccc3c2)cc1)c1cc2ccncc2o1 [N-{[4-(quinoline-6-sulfonyl)phenyl]methyl}furo[2,3-c]pyridine-2-carboxamide]
NAMPT; NAMPT enzymatic assay
  pIC50: 8.14
A2780 cells; SRB
  pIC50: 8.30

## CCN(C)c1ncc(S(=O)(=O)c2ccc(CNC(=O)c3cnc4[nH]ncc4c3)cc2)s1 [N-[(4-{2-[ethyl(methyl)amino]-1,3-thiazole-5-sulfonyl}phenyl)methyl]-1H-pyrazolo[3,4-b]pyridine-5-carboxamide]
NAMPT; NAMPT enzymatic assay
  pIC50: 8.44
A2780 cells; SRB
  pIC50: 8.82

## CCCCc1ccc(S(=O)(=O)c2ccc(CNC(=O)c3cc4ccncc4s3)cc2)cc1
NAMPT; NAMPT enzymatic reaction
  pIC50: 8.54
A2780 cells; SRB
  pIC50: 7.59

## COc1cc(C)cc(OC)c1S(=O)(=O)c1ccc(CNC(=O)c2cc3ccncc3s2)cc1 [N-({4-[(2,6-dimethoxy-4-methylbenzene)sulfonyl]phenyl}methyl)thieno[2,3-c]pyridine-2-carboxamide]
NAMPT; NAMPT enzymatic reaction
  pIC50: 8.15
A2780 cells; SRB assay
  pIC50: 8.52

## O=C(NCc1ccc(S(=O)(=O)c2ccc(Cl)c(C(F)(F)F)c2)cc1)c1cnc2nccn2c1
NAMPT; NAMPT enzymatic assay
  pIC50: 8.55
A2780 cells; SRB
  pIC50: 8.37

## CCCCOc1cc(F)ccc1S(=O)(=O)c1ccc(CNC(=O)c2ccc3nccn3c2)cc1
NAMPT; NAMPT enzymatic reaction
  pIC50: 7.29
A2780 cells; SRB
  pIC50: 8.21
